Data on three compounds can be found in patent US6641811B1, “Use of angiotensin II inhibitors to prevent malignancies associated with immunosuppression” (Cornell Research Foundation, Inc., priority 2000, dated 2003).

What all share (type): in vivo
For experiment [1], the system named is human bladder cancer cells (T24). The experiment is described as follows: Pulmonary metastases of T24 human bladder cancer cells injected via tail vein into SCID-beige mice. Conditions: for Number of metastases (mean ± SEM), T-24, with Enalapril: enalapril 10 mg/kg intraperitoneal twice a day, alone or with Cyclosporine 20 mg/kg or FK506 4 mg/kg every other day; for Incidence of tumors as compared to controls: summary of Table I (T24 and Renca) and Example 3 (T-24), in the absence of immunosuppressive agent. As for the experimental part: (§1) In vivo tumor growth. Murine renal cell adenocarinoma cells (1×10^5 in Hanks balanced salt solution), murine Lewis lung carcinoma cells (1×10^5 cells), or human bladder cancer cells (1×10^5 cells) are injected via the tail vein into 6-wk old male SCID-beige mice. […] On day 19 or 23 post tumor inoculation, mice are killed and the number of pulmonary metastases is determined […] endotracheal insufflation of lungs with 15% India ink solution and bleaching the harvested lungs in Fekete's solution.
(§2) SCID-beige (immunodeficient) mice were inoculated with human bladder cancer cells (T24) or murine renal cancer cells (Renca). Tumor bearing mice were then treated with cyclosporin A or the angiotensin II receptor blocker, losartan or both.
(§3) Tumor cells (1×10^5 in HBSS) were injected via the tail vein into SCID-beige mice. […] The mice were sacrificed on day 19 (Renca) and day 23 (T24) and the number of metastases was counted as described (reference 7).

For a further experiment, the system named is pulmonary metastasis. The experiment is described as follows: Tumor progression / development of pulmonary metastasis in experimental animals (Example 2).
In experiment [2] the test system is murine renal cancer cells (Renca). The experiment can be described thus: Pulmonary metastases of Renca murine renal cancer cells injected via tail vein into SCID-beige mice. The following applies: 1×10^5 Renca cells via tail vein, sacrificed day 19, CsA 20 mg/kg SQ QOD, Losartan 10 mg/kg SQ BID, untreated 125 ± 22. On the procedure: as §1, with “solution. The effect of angiotensin II inhibitors and anti-angiotensin II mAbs and the control IgG1 mAbs on CsA-induced increase in the number of pulmonary metastases is determined by intraperitoneal administration of 200 μg of mAbs, on a daily basis starting from day −1 to day 19 post tumor inoculation.” for “solution.”
as §2, §3

Setting [3] is: SCID beige mice, 100,000 T-24 cells by tail vein.

SMILES strings stand for the structures.

On to `C=CC[C@@H]1/C=C(\C)C[C@H](C)C[C@H](OC)[C@H]2O[C@@](O)(C(=O)C(=O)N3CCCC[C@H]3C(=O)O[C@H](/C(C)=C/[C@@H]3CC[C@@H](O)[C@H](OC)C3)[C@H](C)[C@@H](O)CC1=O)[C@H](C)C[C@@H]2OC` [FK506], for which the “Number of metastases (mean ± SEM), T-24, without Enalapril” value in experiment [1] (SCID beige mice, 100,000 T-24 cells by tail vein, Cyclosporine 20 mg/kg or FK506 4 mg/kg every other day, no enalapril, untreated 38 ± 4) was 72 ± 21. Further, the “Number of metastases (mean ± SEM), T-24, with Enalapril” value in experiment [1] (setting [3]) was determined as 30 ± 2.
Consider `CCOC(=O)[C@H](CCc1ccccc1)N[C@@H](C)C(=O)N1CCC[C@H]1C(=O)O` [Enalapril], for which the “Number of metastases (mean ± SEM), T-24, with Enalapril” value in experiment [1] (setting [3]) came to 21 ± 3. Also, in experiment [1], the “Incidence of tumors as compared to controls” value is listed as “reduces the incidence of tumors as compared to controls”. Further, in the experiment on pulmonary metastasis, the “Effect on development of pulmonary metastasis” value is listed as “prevented the development of pulmonary metastasis”.
As to `CCCCc1nc(Cl)c(CO)n1Cc1ccc(-c2ccccc2-c2nn[nH]n2)cc1` [Losartan], the “Number of Pulmonary Metastases (Mean ± SEM), Renca” value in experiment [2] is 67 ± 15. Also, the “Number of Pulmonary Metastases (Mean ± SEM), T24” value in experiment [1] (SCID-beige mice, 1×10^5 T24 cells via tail vein, sacrificed day 23, CsA 20 mg/kg SQ QOD, Losartan 10 mg/kg SQ BID, untreated 25 ± 7) turned out to be 12 ± 3. In experiment [1], the “Incidence of tumors as compared to controls” value is “reduces the incidence of tumors as compared to controls”.
